Laboratory results reported in patent US7786042B2, “Fluridone as an anti-inflammatory agent” (Universita' Degli Studi Di Genova, priority 2005, dated 2010).

Tests used:
Format in all cases: cell-based
[1] = system: human granulocytes; assay: Intracellular calcium [Ca2+]i in granulocytes
Description: Granlocytes were isolated by density gradient centrifugation from the peripheral blood of healthy donors, after informed consent. Contaminating erythrocytes were removed by hypotonic lysis. […] The increase of [cADPR]i in turn induces a progressive rise of [Ca^2+]i, from a basal value of 50±2 nM to 170±25 nM after 10 min from the addition of 10 μM ABA (n=4). […] The increase of the [Ca^2+]i induced by ABA in granulocytes is in turn responsible for activation of several functional activities typical of these cells. The functional effects induced by ABA (at concentrations ranging between 0.2 and 20 μM) in granulocytes include stimulation of the production of reactive oxygen species (ROS), measured through the cytochrome c […] (FIG. 2A), and of nitric oxide (NO), measured as accumulation of nitrite, the end-product of NO […] (FIG. 2B).

[2] = system: human granulocytes; assay: ROS production by granulocytes (cytochrome c assay)
Description: Granulocytes were resuspended at 5×10^6/ml in HBSS and 225 μl of the cell suspension were added to 50 μl of 0.2 mM cytochrome c and were incubated for 30 min at 37° C. in the absence (control) or in the presence of 250 nM or 20 μM ABA, the latter concentration without or with 1 mM EDTA, 20 mM nicotinamide or 0.1 mM 8-Br-cADPR. The amount of ROS (panel A) or of NO (panel B) in the cell supernatant was measured as described in Materials and Methods. The results are expressed as the production relative to control cells, not stimulated with ABA, and are the mean ±SD from 5 experiments.
Release of superoxide (O2^−) by human granulocytes was quantified by a spectrophotometric assay of cytochrome c reduction (Cohen, J Clin Invest 1978). Granulocytes were resuspended in HBSS (at 5×10^6 cells/ml) and 225 μl of the cell suspension was incubated for 30 min at 37° C. with 50 μl cytochrome c (0.2 mM) in the absence (control) or in the presence of ABA at different concentrations. Then, cells were centrifuged at 5,000×g for 15 s and the absorbance of the supernatants was recorded at 550 nm (λmax for reduced cytocrome c).

[3] = system: human granulocytes; assay: NO release by granulocytes (nitrite, Griess)
Description: Granulocytes were resuspended at 5×10^6/ml in HBSS and 225 μl of the cell suspension were added to 50 μl of 0.2 mM cytochrome c and were incubated for 30 min at 37° C. in the absence (control) or in the presence of 250 nM or 20 μM ABA, the latter concentration without or with 1 mM EDTA, 20 mM nicotinamide or 0.1 mM 8-Br-cADPR. […] The results are expressed as the production relative to control cells, not stimulated with ABA, and are the mean ±SD from 5 experiments.
The method used to determine NO released from the cells into the medium exploits the spontaneous conversion of NO to nitrates and the subsequent enzymatic reduction of nitrates to nitrites by the enzyme nitrate reductase. […] Granulocytes (60×10^6/well) or murine microglia cells N9 (2×10^5/well) were incubated in 24-well plates for 60 min at 37° C. in the presence of ABA at different concentrations. The supernatants were then centrifuged and diluted with an equal volume of Griess reagent (0.1% naphthyl-ethylenediamine dihydrochloride in distilled water, 1% sulphanylamide in 5% concentrated H3PO4). Absorbance at 545 nm was estimated after 10 min and the nitrite concentration was calculated using a standard curve, generated in parallel with known amounts of NaNO2.

[4] = system: human granulocytes; assay: Chemotaxis and chemokinesis of granulocytes
Description: Assays were performed using 96-well ChemoTx system microplates with a 3-μm pore size polycarbonate filter (NeuroProbe Inc., Gaithersburg, USA). Cells (granulocytes or murine microglia) were resuspended at 10^7/ml in HBSS, PBS and 5% albumin, 39:16:1 (chemotaxis buffer, CB). In order to evaluate the chemoattractant effect of ABA, hormone concentrations ranging from 50 nM to 20 μM were added in CB in the bottom wells and 25 μl cell suspensions were placed on top of the filter. To evaluate a possible stimulatory effect of ABA on spontaneous cell movements (chemokinesis), cells were pre-incubated with or without 20 μM ABA, then washed and placed on top of the filter, in contact with CB. Plates were incubated at 37° C. for 60 min and transmigrated cells were recovered and quantified by fluorimetric assay with Cytox Green. The number of transmigrated cells was calculated by comparison of the measured fluorescence with that of a standard curve, obtained by directly placing a serial dilution of cells in the bottom wells. The results of the chemotaxis experiments are expressed as “chemotaxis index” (CI): CI=number of cells migrated towards chemoattractant/number of cells migrated towards CB

SMILES | inhibition of the ABA-induced increase of [Ca2+]i [1] | effect on ABA-induced ROS production [2] | effect on ABA-induced NO production [3] | effect on ABA-induced chemokinesis and chemotaxis [4] | effect on the ABA-induced increase of [Ca2+]i [1]
N=c1c2nc(Br)n3c2ncn1C1OC(COP(=O)(O)OP(=O)(O)OCC2OC3C(O)C2O)C(O)C1O (stereo not shown) [8-Br-cADPR, reference compound] | approx. 60% | inhibited | inhibited | inhibited | –
O=C(O)CN(CCN(CC(=O)O)CC(=O)O)CC(=O)O [EDTA, reference compound] | – | inhibited | inhibited | – | –
O=C(O)CN(CCOCCOCCN(CC(=O)O)CC(=O)O)CC(=O)O [EGTA] | – | – | – | – | almost completely prevents
NC(=O)c1cccnc1 [nicotinamide, reference compound] | – | inhibited | inhibited | inhibited | –
